Results published in patent publication US20170035828A1, “COMPOSITION CONTAINING SCUTELLARIA ALPINA EXTRACT” (AMOREPACIFIC CORPORATION, priority 2014, published 2017).

Legend:
Format in all cases: cell-based, human
[1] = test system: EDN1 (endothelin 1) gene; experiment: Gene expression assay by real-time PCR (EDN1) in melanocytes; details: melanocytes (KaMC), 2 nM substance P, 5 days
Method: (§1) Melanocytes (KaMC; KCTC 12015BP) deposited in the Korean Collection for Type Culture (KCTC) were cultured in M-254 medium (Gibco BRL, NY, USA) supplemented with Human Melanocyte Growth Supplement (HMGS; Gibco BRL, NY, USA) on a 6-well plate, while changing the medium every other day, in a 5% CO2 incubator at 37° C. until the cells occupied 95% of the plate area (95% confluence). […] The cells not treated with substance P or the alpine skullcap (Scutellaria alpina) extract of Example 1 were used as a control group. After removing the medium form the melanocytes cultured on the 6-well plate, the cells were washed 2 times with cold phosphate-buffered saline (PBS) and the remaining water was completely removed. […] 1 μL of the RNA was quantified using Synergy II (Biotek, USA). […] After adding 10 μL of Taqman Gene Expression Master Mix (Life Technologies, USA) and 1 μL of Assays-on-DemandTM (Life Technologies, USA) of NK1R (ACCESSION: NM_001058) and EDN1 (ACCESSION: NM_001168319) genes to 9 μL of the diluted cDNA, the expression of the genes was analyzed by relative quantification using 7500 Fast Real-Time PCR (Life Technologies, USA) with glyceraldehyde 3-phosphate dehydrogenase (GAPDH, ACCESSION: NM001256799) as a control gene. […]

[2] = test system: NK1R (neurokinin 1 receptor) gene; experiment: Gene expression assay by real-time PCR (NK1R) in melanocytes; details: melanocytes (KaMC), 2 nM substance P, 5 days
Method: as §1

[3] = test system: endothelin 1 (EDN1); experiment: Endothelin 1 ELISA assay of culture medium of treated melanocytes; details: melanocytes (KaMC), 2 nM substance P
Method: When the density of the melanocytes on the 6-well plate reached about 80% (˜80% confluence), they were incubated for a total of 5 days with 2 nM of stress-inducing substance P (Bachem Fechemikalien, Bubendorf, Switzerland) or the alpine skullcap (Scutellaria alpina) extract of Example 1 of different concentrations (0, 0.1, 1, 2 and 5 ppm). The cells not treated with substance P or the alpine skullcap (Scutellaria alpina) extract of Example 1 were used as a control group.
The culture medium of the cells treated with the extract in (2) of Test Example 1 were recovered and the amount of endothelin 1 (EDN1) comprised in the medium was measured at 450 nm using the human total endothelin ELISA kit (MyBioSource, USA).
Endothelin content (%)=(Absorbance/Total protein)×100 [Equation 1]

CSCC[C@H](NC(=O)[C@H](CC(C)C)NC(=O)CNC(=O)[C@H](Cc1ccccc1)NC(=O)[C@H](Cc1ccccc1)NC(=O)[C@H](CCC(N)=O)NC(=O)[C@H](CCC(N)=O)NC(=O)[C@@H]1CCCN1C(=O)[C@H](CCCCN)NC(=O)[C@@H]1CCCN1C(=O)[C@@H](N)CCCN=C(N)N)C(N)=O [substance P]
expression of the EDN1 gene (relative quantification vs GAPDH, control group = 1) [1]: 3.3 | expression of the NK1R gene (relative quantification vs GAPDH, control group = 1) [2]: 3.8 | content of endothelin 1 (Absorbance/Total protein x 100, control group = 100%) [3]: 124%
